Data reported in patent US11013745B2, “Triazolopyrimidine, triazolopyridine compounds, and the composition thereof for treating PRC2-mediated diseases” (SHANGHAI INSTITUTE OF MATERIA MEDICA, CHINESE ACADEMY OF …, priority 2017, dated 2021).
pIC50: −log10 of the molar value. Like-named read-outs stand apart in the source and are kept apart here. Values belong to the compound of their own block, whether it stands above or below them.

Tests used:
[1] = Liver microsomal stability (rat); type: in vitro ADME
Procedure: (§1) 1. JANUS and temperature control device was turned on. After being initialized, the pipes were flushed until there was no air bubble in the pipes.
(§2) 2. Preparation of buffers used for the experiment
(§3) Preparation of Tris pH 7.4 buffer (0.1 M): 12.12 g of Tris was dissolved in 1000 mL of H2O, the resulting solution was adjusted to pH 7.4 with 2N HCl, aliquoted at 50 mL per tube, and stored at −20° C.
(§4) Preparation of H2O/0.1% BSA buffer: 200 μL of 25% BSA was added to 50 mL of H2O.
(§5) Preparation of VIVID stock solution: 1 mg of VIVID was dissolved in 1 mL of acetonitrile, aliquoted at 50 μL per tube, and stored at −20° C.
(§6) Preparation of MgCl2 solution (100 mM): 1.016 g of MgCl2 was dissolved in 50 mL Tris pH 7.4 buffer, and aliquoted at 1 mL per tube, and stored at −20° C.
(§7) Preparation of NADPH solution (10 mM): 355 mg of NADPH was dissolved in 42.6 mL of Tris pH 7.4 buffer, aliquoted at 1.8 mL per tube, and stored at −20° C.
(§8) Preparation of Blank control: 7.937 mL of Tris, 163 μL of RLM, 450 μL of MgCl2 solution, 450 μL of NADPH solution and 9 mL of methanol were mixed uniformly, aliquoted at 1 mL per tube, and stored at −20° C.
(§9) 3. Preparation of Compound Working Solution
(§10) Dilution step 1:10 μL of compound stock solution was added to 90 μL of DMSO=1 mM stock solution.
(§11) Dilution step 2: 2 μL of 1 mM stock solution was added to 1 mL of H2O/0.1%6 BSA buffer=[…] working solution.
(§12) Dilution step 3: 245 μL of the working solution was added to a 96-well compound plate and added with 5 μL of VIVID stock solution.
(§13) The 96-well compound plate was shaken on a shaker for 5 min.
(§14) 4. The STM in the JANUS in the computer was open to run the EXCEL file, and the JANUS program was operated and run by following the instructions in the EXCEL file.
(§15) 5. After the JANUS program was finished, acetonitrile/water 50:50 (V/V) was added to column 20 of the 384-well black plate, and blank control was added to column 21 of the 384-well black plate.
(§16) 6. the plate (420 nm-465 nm) was read on a microplate reader to determine the VIVID fluorescence intensity.
(§17) 7. After the plate was sealed, shaken and centrifuged, the sample plate was subjected to the LC/MS instrument for sample analysis.
(§18) A profile of the logarithmic value of the remaining rate of the drug in the incubation system versus the incubation time was plotted, and the slope k was obtained by linear regression. The intrinsic clearance rate in vivo (Clint, mL/min/g) value, the clearance rate in vivo (Cl, mL)/min), liver clearance (Clhep, mL/min) and metabolic bioavailability (% MF) were predicted according to the following equations: […]

[2] = Liver microsomal stability (mouse); type: in vitro ADME
[3] = target: PRC2 enzyme (Homo sapiens (Human), UniProt O75530); experiment: PRC2 enzyme activity, TR-FRET method; type: biochemical
PRC2 enzyme, sequence (O75530 whole entry): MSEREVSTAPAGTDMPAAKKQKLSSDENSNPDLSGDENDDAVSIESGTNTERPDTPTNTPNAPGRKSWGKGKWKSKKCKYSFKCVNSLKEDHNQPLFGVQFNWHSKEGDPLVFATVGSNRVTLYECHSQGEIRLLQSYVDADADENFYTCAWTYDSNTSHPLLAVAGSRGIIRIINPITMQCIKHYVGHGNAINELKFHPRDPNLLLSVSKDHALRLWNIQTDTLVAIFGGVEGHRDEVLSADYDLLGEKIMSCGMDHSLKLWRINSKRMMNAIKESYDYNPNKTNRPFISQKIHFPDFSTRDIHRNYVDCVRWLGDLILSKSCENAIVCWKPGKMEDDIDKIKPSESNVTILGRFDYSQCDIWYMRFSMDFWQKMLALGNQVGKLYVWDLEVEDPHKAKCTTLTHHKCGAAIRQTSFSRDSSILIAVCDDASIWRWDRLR
PRC2 enzyme, sequence (Q15910 whole entry partner): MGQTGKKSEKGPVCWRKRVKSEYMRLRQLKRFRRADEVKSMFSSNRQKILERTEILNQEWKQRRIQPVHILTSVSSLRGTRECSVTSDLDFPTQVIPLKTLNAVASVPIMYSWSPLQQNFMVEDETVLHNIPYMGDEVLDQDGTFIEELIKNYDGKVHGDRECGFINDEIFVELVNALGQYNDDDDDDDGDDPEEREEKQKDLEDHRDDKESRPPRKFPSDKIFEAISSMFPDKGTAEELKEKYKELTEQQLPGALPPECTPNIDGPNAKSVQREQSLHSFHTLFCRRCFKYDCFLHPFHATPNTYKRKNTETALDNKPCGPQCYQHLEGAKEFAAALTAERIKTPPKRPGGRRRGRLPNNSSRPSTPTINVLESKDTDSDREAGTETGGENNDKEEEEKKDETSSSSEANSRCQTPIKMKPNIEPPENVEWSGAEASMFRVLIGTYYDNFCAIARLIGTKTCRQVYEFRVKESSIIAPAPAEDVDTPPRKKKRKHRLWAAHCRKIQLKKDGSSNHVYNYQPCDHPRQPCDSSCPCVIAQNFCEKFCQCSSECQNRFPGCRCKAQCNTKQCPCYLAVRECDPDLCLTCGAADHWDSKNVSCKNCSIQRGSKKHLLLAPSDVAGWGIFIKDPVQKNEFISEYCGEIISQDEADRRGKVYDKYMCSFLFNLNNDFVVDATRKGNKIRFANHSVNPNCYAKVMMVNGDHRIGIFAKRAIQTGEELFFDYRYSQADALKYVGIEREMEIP
PRC2 enzyme, sequence (Q15022 whole entry partner): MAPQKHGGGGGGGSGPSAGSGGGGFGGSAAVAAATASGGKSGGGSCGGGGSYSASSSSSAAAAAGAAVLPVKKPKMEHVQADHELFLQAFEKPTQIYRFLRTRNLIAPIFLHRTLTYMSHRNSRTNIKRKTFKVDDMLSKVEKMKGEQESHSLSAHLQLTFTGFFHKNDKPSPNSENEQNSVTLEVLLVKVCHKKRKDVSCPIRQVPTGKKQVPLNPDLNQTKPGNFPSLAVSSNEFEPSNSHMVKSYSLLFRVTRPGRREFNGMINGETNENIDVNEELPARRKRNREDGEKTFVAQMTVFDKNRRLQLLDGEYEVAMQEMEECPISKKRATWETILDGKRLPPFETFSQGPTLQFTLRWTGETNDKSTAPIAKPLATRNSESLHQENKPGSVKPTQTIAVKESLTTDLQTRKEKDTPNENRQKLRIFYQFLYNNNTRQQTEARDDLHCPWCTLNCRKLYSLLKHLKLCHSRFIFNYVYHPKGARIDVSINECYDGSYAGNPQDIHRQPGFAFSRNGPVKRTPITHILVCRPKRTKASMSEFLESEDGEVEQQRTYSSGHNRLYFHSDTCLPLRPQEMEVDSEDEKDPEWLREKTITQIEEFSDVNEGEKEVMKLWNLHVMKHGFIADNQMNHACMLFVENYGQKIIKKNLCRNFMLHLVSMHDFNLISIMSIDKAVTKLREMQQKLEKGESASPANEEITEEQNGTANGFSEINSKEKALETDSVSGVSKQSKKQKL
Procedure: The TR-FRET method was used to measure the PRC2 enzyme activity. First, the enzyme was mixed with compounds at different concentrations and incubated for 30 min at room temperature. The biotin-labeled histone H3 peptide substrate and the cofactor S-adenosylmethionine (SAM) were added to initiate the enzymatic reaction. After reaction was performed at room temperature for 4 hour, Acceptor and Donor were added and incubated for half an hour. The multifunctional microplate reader EnVision (Perkin Elmer Inc.) was used to detect the fluorescence signal. Data were analyzed using GraphPad Prism 5.0 software, and IC50 values were obtained.

[4] = test system: Pfeiffer cells; experiment: Pfeiffer cell growth inhibition in a long term (11 days), CellTiter-Glo; type: cell-based, Human; settings: Homo sapiens, 264 h, 11 days, read-out: Experiment on Pfeiffer cell growth inhibition in a long term (11 days IC50)
Procedure: Pfeiffer cells in exponential growth phase were seeded in a 24-well plate with a cell density of 1*10E5 cells/mL. Cells were treated on the same day with the compounds at different concentrations. At day 4 and day 7 of compound treatment, fresh media and compounds were changed. After treated with the compounds for 11 days, cell viability was measured using CellTiter-Glo reagent (Promega Corporation). The data was analyzed using GraphPad Prism 5.0 software and GI50 values were obtained.

[5] = Liver microsomal stability (human); type: in vitro ADME
Procedure: as §1, §2, §3, §4, §5, §6, §7, §8, §9, §10, §11, §12, §13, §14, §15, §16, §17, §18

[6] = test system: Karpas-422 cells; experiment: Growth inhibition of Karpas-422 cells in a long term (11 days), CellTiter-Glo; type: cell-based, Human; settings: Homo sapiens, 264 h; Karpas-422, 11 days; read-out: Karpas-422 (11 days) IC50
[7] = test system: Pfeiffer cells; experiment: Growth inhibition of Pfeiffer cells in a long term (14 days), CellTiter-Glo; type: cell-based, Human; settings: Homo sapiens, 336 h, 14 days, read-out: Pfeiffer (14 days) IC50
Procedure: In a CO2 cell incubator (37° C., 5% CO2), Human diffuse large B-cell lymphoma (DLBCL) cell line, pfeiffer (obtained from ATCC, CRL-2632) were incubated with RPMI 1640 medium (Gibco, purchased from Life Technologies, 22400-089) containing 10% fetal bovine serum (Gibco, purchased from Life Technologies, 10099-141) and 1% antibiotics (penicillin and streptomycin, purchased from Life Technologies, 10378016). […] After seeding the cells, they were placed in a CO2 incubator and allowed to stand for 1 hour. In a 24-well plate containing cells, 2 μL of three-fold gradient of the compounds at 9 different concentrations or DMSO were added to each well, such that the final concentration of the compounds was 0.003-20 μM or 0.3-2000 nM, and the final concentration of DMSO was 0.2%. At day 4, day 7, and day 11 of compound treatment, the fresh medium and compounds were changed, and the cell density of the DMSO control well was diluted to 2*10E5 cells/mL. The cell dilution ratio for other compound wells was the same as that of the DMSO control well. Cell viability was determined by using CellTiter-Glo reagent (purchased from Promega Inc., G7572): cells treated with the compounds for 14 days were transferred to a white 384-well plate (OptiPlate-384, purchased from PerkinElmer, 6007299) at 40 μL/well, an equal volume of CellTiter-Glo reagent was further added. After incubating at room temperature for 10 min, the cold luminescence signal was detected with a multifunctional microplate reader EnVision (PerkinElmer) at a wavelength of 400 to 700 nm. Data were analyzed using GraphPad Prism 5.0 software, and IC50 values were obtained.

[8] = rat, liver microsomes, pH 7.4, rat liver microsomes, read-out: Half life T-half
[9] = mouse, liver microsomes, pH 7.4, mouse liver microsomes, read-out: Half life T-half
[10] = human, liver microsomes, pH 7.4, human liver microsomes, read-out: Half life T-half
[11] = human, liver microsomes, pH 7.4, human liver microsomes, read-out: Metabolic bioavailability MF %

Clearance rate in vivo Clint In Vivo Extpl ([1]; rat liver microsomes): 59.6 mL/min
Intrinsic clearance rate in vivo Clint In Vitro ([1]; rat liver microsomes): 133 mL/min/gprot
Liver clearance rate Clint Hep In Vivo Extpl ([1]; rat liver microsomes): 15.0 mL/min
Metabolic bioavailability MF % ([1]; rat liver microsomes): 25.1%
half-life [1, 8]: 0.265 h
Clearance rate in vivo Clint In Vivo Extpl ([2]; mouse liver microsomes): 23.2 mL/min
Intrinsic clearance rate in vivo Clint In Vitro ([2]; mouse liver microsomes): 344 mL/min/gprot
Liver clearance rate Clint Hep In Vivo Extpl ([2]; mouse liver microsomes): 2.66 mL/min
Metabolic bioavailability MF % ([2]; mouse liver microsomes): 11.4%
half-life [2, 9]: 0.102 h
pIC50 [3]: 7.79
pIC50 [4]: 8.27
Clearance rate in vivo Clint In Vivo Extpl ([5]; human liver microsomes): 2522 mL/min
Intrinsic clearance rate in vivo Clint In Vitro ([5]; human liver microsomes): 33.0 mL/min/gprot
Liver clearance rate Clint Hep In Vivo Extpl ([5]; human liver microsomes): 941 mL/min
half-life [5, 10]: 1.06 h
bioavailability [5, 11]: 37.3%
SMILES: O=C(CN1CCOCC1)N1CC=C(c2cnc(NCc3c(F)ccc4c3CCO4)n3cnnc23)CC1 [E-Y40]

pIC50 [3]: 8.32
pIC50 [6]: 8.00
pIC50 [7]: 8.82
pIC50 [4]: 8.44
SMILES: Cc1cc(C(=O)N2CC=C(c3cnc(NCc4c(F)ccc5c4CCO5)n4cnnc34)CC2)n(C)n1 [E-Y42]

Clearance rate in vivo Clint In Vivo Extpl ([1]; rat liver microsomes): 44.8 mL/min
Intrinsic clearance rate in vivo Clint In Vitro ([1]; rat liver microsomes): 99.6 mL/min/gprot
Liver clearance rate Clint Hep In Vivo Extpl ([1]; rat liver microsomes): 13.8 mL/min
Metabolic bioavailability MF % ([1]; rat liver microsomes): 30.9%
half-life [1, 8]: 0.352 h
Clearance rate in vivo Clint In Vivo Extpl ([2]; mouse liver microsomes): 10.9 mL/min
Intrinsic clearance rate in vivo Clint In Vitro ([2]; mouse liver microsomes): 161 mL/min/gprot
Liver clearance rate Clint Hep In Vivo Extpl ([2]; mouse liver microsomes): 2.35 mL/min
Metabolic bioavailability MF % ([2]; mouse liver microsomes): 21.6%
half-life [2, 9]: 0.217 h
pIC50 [3]: 8.07
pIC50 [4]: 8.48
Clearance rate in vivo Clint In Vivo Extpl ([5]; human liver microsomes): 1464 mL/min
Intrinsic clearance rate in vivo Clint In Vitro ([5]; human liver microsomes): 19.1 mL/min/gprot
Liver clearance rate Clint Hep In Vivo Extpl ([5]; human liver microsomes): 741 mL/min
half-life [5, 10]: 1.83 h
bioavailability [5, 11]: 50.6%
SMILES: O=C(C1CCOCC1)N1CC=C(c2cnc(NCc3c(F)ccc4c3CCO4)n3cnnc23)CC1 [E-Y43]

Clearance rate in vivo Clint In Vivo Extpl ([1]; rat liver microsomes): 10.9 mL/min
Intrinsic clearance rate in vivo Clint In Vitro ([1]; rat liver microsomes): 24.2 mL/min/gprot
Liver clearance rate Clint Hep In Vivo Extpl ([1]; rat liver microsomes): 7.05 mL/min
Metabolic bioavailability MF % ([1]; rat liver microsomes): 64.8%
half-life [1, 8]: 1.45 h
Clearance rate in vivo Clint In Vivo Extpl ([2]; mouse liver microsomes): 0.921 mL/min
Intrinsic clearance rate in vivo Clint In Vitro ([2]; mouse liver microsomes): 13.6 mL/min/gprot
Liver clearance rate Clint Hep In Vivo Extpl ([2]; mouse liver microsomes): 0.705 mL/min
Metabolic bioavailability MF % ([2]; mouse liver microsomes): 76.5%
half-life [2, 9]: 2.57 h
pIC50 [3]: 8.28
pIC50 [4]: 8.42
Clearance rate in vivo Clint In Vivo Extpl ([5]; human liver microsomes): 174 mL/min
Intrinsic clearance rate in vivo Clint In Vitro ([5]; human liver microsomes): 2.28 mL/min/gprot
Liver clearance rate Clint Hep In Vivo Extpl ([5]; human liver microsomes): 156 mL/min
half-life [5, 10]: 15.4 h
bioavailability [5, 11]: 89.6%
SMILES: CC(=O)N1CCC(c2cnc(NCc3c(F)ccc4c3CCO4)n3cnnc23)CC1 [E-Y50]

SMILES: CN1CC=C(c2cnc(NCc3c(F)ccc4c3CCO4)n3cnnc23)CC1 [SL-E23]
Clearance rate in vivo Clint In Vivo Extpl ([1]; rat, microsomes): 15.8 mL/min
Intrinsic clearance rate in vivo Clint In Vitro ([1]; rat, microsomes): 35.0 mL/min/gprot
Liver clearance rate Clint Hep In Vivo Extpl ([1]; rat, microsomes): 8.81 mL/min
half-life ([1]; rat, microsomes, pH 7.4, Half life T-half): 1 h
Metabolic bioavailability MF % ([1]; rat, pH 7.4): 55.9%
Clearance rate in vivo Clint In Vivo Extpl ([2]; mouse, microsomes): 3.67 mL/min
Intrinsic clearance rate in vivo Clint In Vitro ([2]; mouse, microsomes): 54.4 mL/min/gprot
Liver clearance rate Clint Hep In Vivo Extpl ([2]; mouse, microsomes): 1.65 mL/min
half-life ([2]; mouse, microsomes, pH 7.4, Half life T-half): 0.643 h
Metabolic bioavailability MF % ([2]; mouse, pH 7.4): 45.0%
pIC50 [3]: 8.33
pIC50 [6]: 8.55
pIC50 [7]: 8.70
pIC50 [4]: 8.11
Clearance rate in vivo Clint In Vivo Extpl ([5]; human, microsomes): 807 mL/min
Intrinsic clearance rate in vivo Clint In Vitro ([5]; human, microsomes): 10.5 mL/min/gprot
Liver clearance rate Clint Hep In Vivo Extpl ([5]; human, microsomes): 525 mL/min
half-life ([5]; human, microsomes, pH 7.4, Half life T-half): 3.32 h
bioavailability ([5]; human, pH 7.4, Metabolic bioavailability MF %): 65%

pIC50 [3]: 8.35
pIC50 [7]: 8.49
SMILES: O=S1(=O)CC=C(c2cnc(NCc3c(F)ccc4c3CCO4)n3cnnc23)CC1 [SL-ZYE-09]

pIC50 [3]: 8.08
pIC50 [7]: 8.22
SMILES: CC1C=C(c2cnc(NCc3c(F)ccc4c3CCO4)n3cnnc23)CC(C)O1 (stereo not drawn) [SL-ZYE-24]

pIC50 [3]: 7.65
pIC50 [7]: 8.00
SMILES: Fc1ccc2c(c1CNc1ncc(C3=CCOc4ccccc43)c3nncn13)CCO2 [SL-ZYE-28]

pIC50 [3]: 7.63
pIC50 [7]: 8.40
pIC50 [4]: 8.09
SMILES: CC1(C)CC(c2cnc(NCc3c(F)ccc4c3CCO4)n3cnnc23)=CCO1 [SL-ZYE-119]

pIC50 [3]: 8.33
pIC50 [4]: 8.52 to 9.00
SMILES: CCOC(=O)N1CC=C(c2cnc(NCc3c(F)ccc4c3CCO4)n3cnnc23)CC1 [SL-ZYE-148]

pIC50 [3]: 7.39
pIC50 [4]: 7.57 to 8.05
SMILES: CCC(=O)N1CC=C(c2cnc(NCc3c(F)ccc4c3CCO4)n3cnnc23)CC1 [SL-ZYE-161]
